Measured values reported in patent US20260167641A1, “CRYSTAL FORM OF IMIDAZOPYRAZINE DERIVATIVE, PREPARATION METHOD THEREFOR AND USE THEREOF” (TRANSTHERA SCIENCES (NANJING), INC., priority 2022, published 2026).
≈ marks a conversion by molar mass, not a printed value.

What was measured:
[1] = Stability evaluation under influencing factors; format: physicochemical; settings: for Purity decrease: 30 days vs day 0
Description: Appropriate amounts of crystal forms I, II. III, and the compound of formula (I) were taken and exposed to conditions of 60° C., RH (relative humidity) 92.5%, RH (relative humidity) 75%, and light, respectively. The samples were collected on day 30, and the purity of the samples and changes in XRPD were examined according to the 2020 edition of the Chinese Pharmacopoeia.

[2] = Solubility test in pH 4.5 acetate buffer solution; format: physicochemical; settings: for Solubility: saturated solution, 37° C., 200 rpm, 24 h
Description: Appropriate amounts of crystal forms I, II, III, and the compound of formula (I) were weighed and placed into 15 mL centrifuge tubes separately. A pH 4.5 acetate buffer was added to each tube to prepare saturated solutions. The tubes were sealed and placed in a water bath thermostatic oscillator to shake at 37° C. and a rotation speed of 200 rpm for 24 h. After centrifugation, the supernatants were collected and diluted to the corresponding multiples. The concentrations were measured. The detection was conducted according to the 2020 edition of the Chinese Pharmacopoeia.

[3] = Pharmacokinetic evaluation test in rats; format: in vivo, SD rats; settings: p.o. 100 mg/kg; for Pharmacokinetic properties: SD rats; for AUCinf—obs / AUClast / Cmax / tz1/2 (terminal half-life) / Tmax: male SD rats, 100 mg/kg; for AUCinf—obs / AUClast / Cmax / tz1/2 (terminal half-life): mean, n = 3; for Tmax: n = 3, Tmax in median
Description: • Animals: male SD rats • Animal administration and sample collection: Crystal forms I, II, and III were each dissolved in a mixture of 20% PEG400+80% (20% Captisol in 0.5% MC) to prepare administration formulation suspensions. The administration formulations were intragastrically administered to the SD rats at a dose of 100 mg/kg. Blood samples were collected at time points of 15 min, 30 min, 1 h, 2 h, 4 h, 6 h, 8 h, 24 h, 48 h, 72 h, and […] after administration.
One day before administration, the animals underwent jugular vein catheterization. After administration, about 300 μL of blood samples were collected via the jugular vein and then placed into anticoagulation tubes containing EDTA-K2. The blood samples were centrifuged at 4° C. and 8000 rpm for 10 min to yield plasma samples, which were prepared within 30 min after blood sample collection. The plasma samples were stored in a refrigerator at −80° C. before tests.
The samples to be tested were taken out from the refrigerator at −80° C., naturally thawed at room temperature, and then vortexed for 5 min. 20 μL of each of the 20-fold diluted plasma samples was precisely pipetted into a 1.5 mL centrifuge tube, and 300 μL of an internal standard working solution at a concentration of 10 ng/mL was added. The mixture was uniformly mixed, vortexed for 5 min, and then centrifuged at 12000 rpm for 5 mun.
50 μL of the supernatant was precisely pipetted into a 96-well plate to which water was added at 150 μL/well in advance, uniformly mixed by vortexing for 5 min, and analyzed by LC-MS/MS.
The sample to be tested was taken out from the refrigerator at −80° C., naturally thawed at room temperature, and then vortexed for 5 min. 2 μL of the plasma sample was precisely pipetted and then added, together with 28 μL of blank plasma, to a 1.5 mL centrifuge tube, and 450 μL of an internal standard working solution (a solution of tolbutamide in acetonitrile) at a concentration of 100 ng/mL was added. The mixture was uniformly mixed, vortexed for 5 min, and then centrifuged at 12000 rpm for 5 min. 50 μL of the supernatant was precisely pipetted into a 96-well plate to which water was added at 150 μL/well in advance, uniformly mixed by vortexing for 5 min, and analyzed by LC-MS/MS.
The test compound concentrations were output by Analyst 1.7.1 of AB Sciex. Parameters such as mean, standard deviation, and coefficient of variation were calculated by Microsoft Excel. PK parameters were calculated by Pharsight Phoenix 8.2 software NCA (Tmax was in median).

Purity % ([1]; 0 day) [%] | Crystal form identification (XRPD) ([1]; 60° C., 30 days) | Purity % ([1]; 60° C., 30 days) [%] | Crystal form identification (XRPD) ([1]; Light exposure, 30 days) | Purity % ([1]; Light exposure, 30 days) [%] | Crystal form identification (XRPD) ([1]; RH 75%, 30 days) | Purity % ([1]; RH 75%, 30 days) [%] | Crystal form identification (XRPD) ([1]; RH 92.5%, 30 days) | Purity % ([1]; RH 92.5%, 30 days) [%] | Purity decrease ([1]; light exposure) [%] | Solubility compared to the amorphous form [2] | Solubility [2] [µg/mL] | Pharmacokinetic properties [3] | AUCinf—obs [3] [µg·h/mL] | AUClast [3] [µg·h/mL] | Cmax [3] [µg/mL] | tz1/2 (terminal half-life) [3] [h] | Tmax [3] [h] | SMILES | further results
98.6 | Consistent with day 0 | 98.7 | Consistent with day 0 | 98.1 | Consistent with day 0 | 98.7 | Consistent with day 0 | 98.7 | 0.5 | higher solubility | 273 (≈ 430 µM) | very good pharmacokinetic properties | 1218.508 | 1208.628 | 96.267 | 10.4 | 1.00 | Nc1nccn2c(C34CCC(NC(=O)CN5CCOCC5)(CC3)C4)nc(-c3ccc(C(=O)Nc4cc(C(F)(F)F)ccn4)cc3)c12 (single isomer, unassigned) [Crystal form I, 4-(8-amino-3-(4-(2-morpholinoacetamido)bicyclo[2.2.1]heptan-1-yl)imidazo[1,5-a]pyrazin-1-yl)-N-(4-(trifluoromethyl)pyridin-2-yl)benzamide] | Change of crystal form (XRPD pattern) ([1]; all influencing factor conditions, 30 days): no changes in the crystal forms occurred; Stability compared to the amorphous form ([1]; influencing factors, 30 days): higher stability
99.0 | Consistent with day 0 | 94.8 | Consistent with day 0 | 88.0 | Partially converted to amorphous | 98.7 | Partially converted to amorphous | 98.7 | 11 | higher solubility | 98 (≈ 154 µM) | very good pharmacokinetic properties | 2488.128 | 2482.493 | 142.333 | 9.39 | 2.00 | Nc1nccn2c(C34CCC(NC(=O)CN5CCOCC5)(CC3)C4)nc(-c3ccc(C(=O)Nc4cc(C(F)(F)F)ccn4)cc3)c12 (single isomer, unassigned) [Crystal form III, 4-(8-amino-3-(4-(2-morpholinoacetamido)bicyclo[2.2.1]heptan-1-yl)imidazo[1,5-a]pyrazin-1-yl)-N-(4-(trifluoromethyl)pyridin-2-yl)benzamide] | Purity decrease ([1]; high temperature of 60° C.): 4.2%
99.7 | Consistent with day 0 | 99.5 | Consistent with day 0 | 88.2 | Consistent with day 0 | 99.7 | Consistent with day 0 | 99.7 | 11.5 |  | 65 |  |  |  |  |  |  | Nc1nccn2c(C34CCC(NC(=O)CN5CCOCC5)(CC3)C4)nc(-c3ccc(C(=O)Nc4cc(C(F)(F)F)ccn4)cc3)c12 [Compound of formula (I), 4-(8-amino-3-(4-(2-morpholinoacetamido)bicyclo[2.2.1]heptan-1-yl)imidazo[1,5-a]pyrazin-1-yl)-N-(4-(trifluoromethyl)pyridin-2-yl)benzamide] | 
